Measured values taken from ChEMBL document CHEMBL1158159, “Design, synthesis, and structure-affinity relationship studies in NK1 receptor ligands based on azole-fused quinolinecarboxamide moieties” (Bioorg Med Chem, 2008).

Molecular target: Substance-P receptor (Homo sapiens, UniProt P25103)
Experiment: Displacement of [125I]BH-SP to human recombinant NK1 receptor in CHO cells
Format: cell-based

Substance-P receptor, sequence (P25103 whole entry): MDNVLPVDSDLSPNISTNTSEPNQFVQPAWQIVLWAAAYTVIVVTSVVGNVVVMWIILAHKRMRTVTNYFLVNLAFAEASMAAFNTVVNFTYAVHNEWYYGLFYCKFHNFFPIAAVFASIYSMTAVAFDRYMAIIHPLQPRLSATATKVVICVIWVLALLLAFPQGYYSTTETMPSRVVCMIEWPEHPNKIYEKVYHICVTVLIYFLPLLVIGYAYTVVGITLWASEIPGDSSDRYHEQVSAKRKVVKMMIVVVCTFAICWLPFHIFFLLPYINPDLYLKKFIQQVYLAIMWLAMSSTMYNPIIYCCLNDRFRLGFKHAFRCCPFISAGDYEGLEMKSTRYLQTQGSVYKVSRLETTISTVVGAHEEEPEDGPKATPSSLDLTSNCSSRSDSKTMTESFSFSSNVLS

Structure (SMILES) | IC50
O=C(NCc1cc(C(F)(F)F)cc(C(F)(F)F)c1)c1c(-c2ccccc2)c2ccccc2n2cccc12 | 0.39 µM
Cc1ccc(-c2c(C(=O)NCc3cc(C(F)(F)F)cc(C(F)(F)F)c3)c3nnnn3c3ccccc23)cc1 | 0.401 µM
COc1ccccc1CNC(=O)c1c(-c2ccccc2)c2ccccc2n2nnnc12 | 2.75 µM
O=C(NCc1cc(C(F)(F)F)cc(C(F)(F)F)c1)c1c(-c2ccccc2)c2ccccc2n2nnnc12 | 0.311 µM
Cc1ccc(-c2c(C(=O)N(C)Cc3cc(C(F)(F)F)cc(C(F)(F)F)c3)c3nnnn3c3ccccc23)cc1 | 0.055 µM
CN(Cc1cc(C(F)(F)F)cc(C(F)(F)F)c1)C(=O)c1c(-c2ccccc2)c2ccccc2n2ccnc12 | 0.038 µM
O=C(NCc1cc(C(F)(F)F)cc(C(F)(F)F)c1)c1c(-c2ccccc2)c2ccccc2n2cncc12 | 0.146 µM
CN(Cc1cc(C(F)(F)F)cc(C(F)(F)F)c1)C(=O)c1c(-c2ccccc2)c2ccccc2n2cnnc12 | 0.009 µM
CN(Cc1cc(C(F)(F)F)cc(C(F)(F)F)c1)C(=O)c1c(-c2ccccc2)c2ccccc2n2nnnc12 | 0.026 µM
COc1cc(CNC(=O)c2c(-c3ccccc3)c3ccccc3n3nnnc23)cc(OC)c1 | 0.78 µM

More lines, in order of falling IC50, values ahead:

IC50 | Structure (SMILES)
1.23 µM | O=C(NCc1cc(C(F)(F)F)cc(C(F)(F)F)c1)c1c(-c2ccccc2)c2ccccc2n2ccnc12
0.542 µM | O=C(NCc1cc(C(F)(F)F)cc(C(F)(F)F)c1)c1c(-c2ccccc2)c2ccccc2n2cnnc12
0.235 µM | O=C(NCc1cc(C(F)(F)F)cc(C(F)(F)F)c1)c1c(-c2ccc(F)cc2)c2ccccc2n2nnnc12
0.036 µM | CN(Cc1cc(C(F)(F)F)cc(C(F)(F)F)c1)C(=O)c1c(-c2ccccc2)c2ccccc2n2cccc12
0.021 µM | CN(Cc1cc(C(F)(F)F)cc(C(F)(F)F)c1)C(=O)c1c(-c2ccc(F)cc2)c2ccccc2n2nnnc12
0.0043 µM | CN(Cc1cc(C(F)(F)F)cc(C(F)(F)F)c1)C(=O)c1c(-c2ccccc2)c2ccccc2n2cncc12
